In ChEMBL document CHEMBL1129391, “Potent and selective thrombin inhibitors incorporating the constrained arginine mimic l-3-piperidyl(N-guanidino)alanine at P1” (J Med Chem, 1996) one finds IC50 data, which are given here for 9 compounds.

One test addresses Coagulation factor X (Homo sapiens, UniProt P00742). Briefly: Compound was evaluated for inhibition of amidolytic activity for chromogenic substrate Coagulation factor X.
The next test addresses T1, Trypsin II (Bos taurus, UniProt Q29463).
T1 sequence (Q29463 whole entry): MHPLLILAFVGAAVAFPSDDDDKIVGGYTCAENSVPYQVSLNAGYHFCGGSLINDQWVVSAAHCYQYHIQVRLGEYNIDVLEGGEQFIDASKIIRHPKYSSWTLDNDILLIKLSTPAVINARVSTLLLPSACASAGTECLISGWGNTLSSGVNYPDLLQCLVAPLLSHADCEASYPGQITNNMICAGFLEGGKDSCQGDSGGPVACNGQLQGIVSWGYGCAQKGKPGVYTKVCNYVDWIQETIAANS
Briefly: Compound was evaluated for inhibition of amidolytic activity for chromogenic substrate trypsin.

Another test has as its target Prothrombin (Homo sapiens, UniProt P00734). Briefly: Compound was evaluated for inhibition of amidolytic activity for chromogenic substrate thrombin […].

Chain of Coagulation factor X (P00742 41-179 limits assumed): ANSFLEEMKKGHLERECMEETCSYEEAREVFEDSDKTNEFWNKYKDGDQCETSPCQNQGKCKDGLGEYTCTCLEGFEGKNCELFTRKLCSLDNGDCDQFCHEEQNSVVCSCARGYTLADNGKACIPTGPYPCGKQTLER
Chain of Coagulation factor X (P00742 235-488 limits assumed): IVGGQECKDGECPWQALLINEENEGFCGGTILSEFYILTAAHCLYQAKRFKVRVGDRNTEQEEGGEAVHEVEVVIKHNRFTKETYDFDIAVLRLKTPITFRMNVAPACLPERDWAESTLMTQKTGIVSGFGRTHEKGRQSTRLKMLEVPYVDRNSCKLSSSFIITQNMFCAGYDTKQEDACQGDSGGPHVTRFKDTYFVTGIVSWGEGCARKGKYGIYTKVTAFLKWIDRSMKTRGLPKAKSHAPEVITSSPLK

What is called IC50 is the concentration that gives 50% inhibition. A higher IC50 goes with weaker potency. On to `CCCC(CCC)C(=O)N[C@@H](CC(=O)OC)C(=O)N1CCC[C@H]1C(=O)N[C@H](C=O)CC1CCCN(C(=N)N)C1` (stereo in doubt; 4b), for which the values for the IC50 against Coagulation factor X and on Trypsin II were over 2500 nM and 69.7 nM, respectively.

Turning to `CCCC(CCC)C(=O)N[C@@H](CC(=O)OC)C(=O)N1CCC[C@H]1C(=O)N[C@H](C=O)CCCNC(=N)N`, the IC50 on Coagulation factor X came to 301 nM; at Trypsin II it was 1.2 nM.

Regarding `N=C(N)N1CCC[C@H](C[C@@H](C=O)NC(=O)CN2CCC[C@H](NS(=O)(=O)Cc3ccccc3)C2=O)C1`, the IC50 against Coagulation factor X was over 25000 nM; on Prothrombin, 28.8 nM; on Trypsin II, 60700 nM.

Consider `N=C(N)N1CCCC(C[C@@H](C=O)NC(=O)CN2CCCC[C@H](NS(=O)(=O)Cc3ccccc3)C2=O)C1` (stereo in doubt; 6a), for which the IC50 against Coagulation factor X is over 2500 nM; on Trypsin II, 15100 nM.

Turning to `N=C(N)NCCC[C@@H](C=O)NC(=O)CN1CCCC[C@H](NS(=O)(=O)Cc2ccccc2)C1=O`, the values for the IC50 at Coagulation factor X, against Prothrombin and against Trypsin II were 20.6 nM, 0.71 nM and 329 nM, respectively.

As to `N=C(N)N1CCCC(C[C@@H](C=O)NC(=O)CN2CCCC[C@H](NS(=O)(=O)Cc3ccccc3)C2=O)C1` (stereo in doubt; 6b), the IC50 against Coagulation factor X was over 25000 nM; at Trypsin II, 45800 nM.

Regarding `CCCC(CCC)C(=O)N[C@@H](CC(=O)OC)C(=O)N1CCC[C@H]1C(=O)N[C@H](C=O)CC1CCCN(C(=N)N)C1` (stereo in doubt; 4a), the IC50 against Coagulation factor X is over 2500 nM; against Trypsin II, 113 nM.

On to `[H]/N=C(\N)N1CCC[C@@H](C[C@@H](C=O)NC(=O)CN2CCC[C@H](NS(=O)(=O)Cc3ccccc3)C2=O)C1`, for which the IC50 against Coagulation factor X is over 25000 nM; on Prothrombin it was 0.67 nM; on Trypsin II, 68400 nM.

Regarding `N=C(N)NCCC[C@@H](C=O)NC(=O)CN1CCC[C@H](NS(=O)(=O)Cc2ccccc2)C1=O`, the values for the IC50 against Coagulation factor X, against Prothrombin and against Trypsin II were over 2500 nM, 12.4 nM and 1550 nM, respectively.
